# From ChEMBL document CHEMBL5212743, “Selectivity Literature for EUbOPEN Chemogenomics Library wave 3” (2023)
# How the values were obtained:
# [1] = target: Receptor-interacting serine/threonine-protein kinase 1 (Homo sapiens) (UniProt Q13546); assay: Selectivity interaction (KinomeScan (DiscoverX)) EUB0000339a RIPK1; conditions: at 1 µM
# [2] = target: Serine/threonine-protein kinase Nek5 (Homo sapiens) (UniProt Q6P3R8); assay: Selectivity interaction (KinomeScan (DiscoverX)) EUB0000339a NEK5; conditions: at 1 µM
# [3] = target: T1, Myosin-IIIb (Homo sapiens) (UniProt Q8WXR4); assay: Selectivity interaction (KinomeScan (DiscoverX)) EUB0000339a MYO3B; conditions: at 1 µM
# T1 sequence (whole entry): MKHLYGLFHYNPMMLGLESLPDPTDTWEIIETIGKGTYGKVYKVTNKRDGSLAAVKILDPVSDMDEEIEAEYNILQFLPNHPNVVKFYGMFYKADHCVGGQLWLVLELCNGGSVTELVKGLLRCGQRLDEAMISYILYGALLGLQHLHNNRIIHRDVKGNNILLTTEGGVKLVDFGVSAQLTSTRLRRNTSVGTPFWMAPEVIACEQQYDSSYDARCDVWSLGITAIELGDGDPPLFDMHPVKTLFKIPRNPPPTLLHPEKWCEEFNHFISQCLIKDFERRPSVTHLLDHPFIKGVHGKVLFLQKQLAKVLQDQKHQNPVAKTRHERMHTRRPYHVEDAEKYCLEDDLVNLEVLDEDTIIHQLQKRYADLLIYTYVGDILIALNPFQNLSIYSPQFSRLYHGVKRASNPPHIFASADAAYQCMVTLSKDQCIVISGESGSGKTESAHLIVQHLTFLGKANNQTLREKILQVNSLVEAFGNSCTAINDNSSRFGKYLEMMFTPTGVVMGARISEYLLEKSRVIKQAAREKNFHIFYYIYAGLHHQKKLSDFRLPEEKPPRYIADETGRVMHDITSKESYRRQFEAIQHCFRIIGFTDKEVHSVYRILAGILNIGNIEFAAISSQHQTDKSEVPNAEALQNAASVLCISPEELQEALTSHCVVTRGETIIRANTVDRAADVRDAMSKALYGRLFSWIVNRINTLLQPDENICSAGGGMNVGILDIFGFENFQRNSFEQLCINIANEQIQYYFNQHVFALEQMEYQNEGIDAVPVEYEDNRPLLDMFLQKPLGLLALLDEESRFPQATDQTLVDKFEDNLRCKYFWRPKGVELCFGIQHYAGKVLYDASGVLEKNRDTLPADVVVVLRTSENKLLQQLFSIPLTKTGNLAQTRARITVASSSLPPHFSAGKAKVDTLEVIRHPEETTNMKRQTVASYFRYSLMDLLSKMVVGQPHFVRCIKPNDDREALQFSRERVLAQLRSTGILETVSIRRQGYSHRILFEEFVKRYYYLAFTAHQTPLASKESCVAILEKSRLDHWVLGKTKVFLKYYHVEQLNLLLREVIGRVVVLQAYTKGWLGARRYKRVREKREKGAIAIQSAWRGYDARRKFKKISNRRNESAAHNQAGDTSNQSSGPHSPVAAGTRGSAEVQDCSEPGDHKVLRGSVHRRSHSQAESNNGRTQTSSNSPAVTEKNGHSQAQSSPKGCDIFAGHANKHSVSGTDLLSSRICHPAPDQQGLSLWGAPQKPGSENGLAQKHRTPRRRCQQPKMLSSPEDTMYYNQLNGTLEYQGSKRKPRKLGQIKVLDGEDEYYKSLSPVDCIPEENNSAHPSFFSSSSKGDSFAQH
# [4] = target: SRSF protein kinase 2 (Homo sapiens) (UniProt P78362); assay: Selectivity interaction (KinomeScan (DiscoverX)) EUB0000332a SRPK2; conditions: at 1 µM
# [5] = target: T2, G protein-coupled receptor kinase 3 (Homo sapiens) (UniProt P35626); assay: Selectivity interaction (KinomeScan (DiscoverX)) EUB0000332a ADRBK2; conditions: at 1 µM
# T2 sequence (whole entry): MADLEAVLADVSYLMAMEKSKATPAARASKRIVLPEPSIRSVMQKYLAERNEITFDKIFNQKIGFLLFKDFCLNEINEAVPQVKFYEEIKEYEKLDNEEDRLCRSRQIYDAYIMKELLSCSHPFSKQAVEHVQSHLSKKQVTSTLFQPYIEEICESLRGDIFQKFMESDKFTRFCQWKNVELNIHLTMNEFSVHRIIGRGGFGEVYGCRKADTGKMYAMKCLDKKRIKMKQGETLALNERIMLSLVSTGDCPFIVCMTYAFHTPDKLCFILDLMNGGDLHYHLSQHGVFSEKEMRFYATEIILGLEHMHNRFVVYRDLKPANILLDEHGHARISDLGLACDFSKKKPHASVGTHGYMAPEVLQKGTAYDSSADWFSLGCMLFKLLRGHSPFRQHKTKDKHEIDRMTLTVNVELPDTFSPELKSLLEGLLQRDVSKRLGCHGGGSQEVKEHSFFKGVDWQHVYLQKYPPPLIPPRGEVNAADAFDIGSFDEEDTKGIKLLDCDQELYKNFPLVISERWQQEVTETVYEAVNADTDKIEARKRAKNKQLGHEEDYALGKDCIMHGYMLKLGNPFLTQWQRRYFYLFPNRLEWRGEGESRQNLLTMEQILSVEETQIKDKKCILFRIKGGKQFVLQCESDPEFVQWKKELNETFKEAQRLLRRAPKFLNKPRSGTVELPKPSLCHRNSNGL
# [6] = target: Megakaryocyte-associated tyrosine-protein kinase (Homo sapiens) (UniProt P42679); assay: Selectivity interaction (KinomeScan (DiscoverX)) EUB0000332a MATK; conditions: at 1 µM
# [7] = target: Maternal embryonic leucine zipper kinase (Homo sapiens) (UniProt Q14680); assay: Selectivity interaction (KinomeScan (DiscoverX)) EUB0000332a MELK; conditions: at 1 µM
# [8] = target: Ephrin type-A receptor 6 (Homo sapiens) (UniProt Q9UF33); assay: Selectivity interaction (KinomeScan (DiscoverX)) EUB0000736a EPHA6; conditions: at 1 µM
# [9] = test system: Tyrosine-protein kinase ABL1 (Homo sapiens), P00519 [T315I]; assay: (§1) Selectivity interaction (KinomeScan (DiscoverX)) EUB0000736a ABL1; conditions: at 10 µM
# [10] = test system: Tyrosine-protein kinase ABL1 (Homo sapiens), P00519 [M351T]; assay: as §1; conditions: at 1 µM
# [11] = target: Ephrin type-A receptor 4 (Homo sapiens) (UniProt P54764); assay: Selectivity interaction (KinomeScan (DiscoverX)) EUB0000736a EPHA4; conditions: at 1 µM
# [12] = target: Dual specificity tyrosine-phosphorylation-regulated kinase 1B (Homo sapiens, UniProt Q9Y463); assay: Selectivity interaction (KinomeScan (DiscoverX)) EUB0000736a DYRK1B; conditions: at 1 µM
# [13] = target: Ephrin type-B receptor 3 (Homo sapiens) (UniProt P54753); assay: Selectivity interaction (KinomeScan (DiscoverX)) EUB0000736a EPHB3; conditions: at 1 µM
# [14] = target: Histamine H1 receptor (Homo sapiens, UniProt P35367); assay: Selectivity interaction (GPCR panel (PDSP screen)) EUB0000350a HRH1; conditions: at 10 µM
# [15] = target: Mast/stem cell growth factor receptor Kit (Homo sapiens, UniProt P10721); assay: Selectivity interaction (KinomeScan (DiscoverX)) EUB0000634a KIT; conditions: at 1 µM
# [16] = target: Platelet-derived growth factor receptor beta (Homo sapiens, UniProt P09619); assay: Selectivity interaction (KinomeScan (DiscoverX)) EUB0000634a PDGFRB; conditions: at 1 µM
# [17] = target: Mitogen-activated protein kinase 9 (Homo sapiens, UniProt P45984); assay: Selectivity interaction (KinomeScan (DiscoverX)) EUB0000634a MAPK9; conditions: at 1 µM
# [18] = target: Voltage-dependent L-type calcium channel subunit alpha-1S (Homo sapiens) (UniProt Q13698); assay: Selectivity interaction (CEREP panel (Eurofins)) EUB0000263b CACNA1S; conditions: at 10 µM
# [19] = target: T3, Homeodomain-interacting protein kinase 4 (Homo sapiens) (UniProt Q8NE63); assay: Selectivity interaction (KinomeScan (DiscoverX)) EUB0000263b HIPK4; conditions: at 1 µM
# T3 sequence (whole entry): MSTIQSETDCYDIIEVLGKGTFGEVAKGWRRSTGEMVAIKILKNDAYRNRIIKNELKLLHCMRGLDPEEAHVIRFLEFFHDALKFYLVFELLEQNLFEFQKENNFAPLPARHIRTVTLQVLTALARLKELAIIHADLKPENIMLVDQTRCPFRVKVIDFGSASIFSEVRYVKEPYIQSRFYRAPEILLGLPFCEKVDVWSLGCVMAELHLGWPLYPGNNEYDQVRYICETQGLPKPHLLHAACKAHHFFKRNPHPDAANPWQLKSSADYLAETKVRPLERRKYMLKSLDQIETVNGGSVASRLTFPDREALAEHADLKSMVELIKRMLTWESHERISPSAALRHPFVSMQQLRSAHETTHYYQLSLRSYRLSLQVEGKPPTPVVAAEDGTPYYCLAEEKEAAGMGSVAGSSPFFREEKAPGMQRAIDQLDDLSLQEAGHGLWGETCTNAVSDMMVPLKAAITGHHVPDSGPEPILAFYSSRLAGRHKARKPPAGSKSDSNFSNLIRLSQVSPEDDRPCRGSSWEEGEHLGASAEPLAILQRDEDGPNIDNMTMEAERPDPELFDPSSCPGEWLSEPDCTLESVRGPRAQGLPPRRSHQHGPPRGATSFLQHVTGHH
# [20] = target: Voltage-dependent L-type calcium channel subunit alpha-1S (Homo sapiens) (UniProt Q13698); assay: Selectivity interaction (Enzyme panel (Eurofins-Cerep)) EUB0000263b CACNA1S; conditions: at 10 µM
# [21] = target: T4, Mitogen-activated protein kinase 12 (Homo sapiens) (UniProt P53778); assay: Selectivity interaction (KinomeScan (DiscoverX)) EUB0000263b MAPK12; conditions: at 1 µM
# T4 sequence (whole entry): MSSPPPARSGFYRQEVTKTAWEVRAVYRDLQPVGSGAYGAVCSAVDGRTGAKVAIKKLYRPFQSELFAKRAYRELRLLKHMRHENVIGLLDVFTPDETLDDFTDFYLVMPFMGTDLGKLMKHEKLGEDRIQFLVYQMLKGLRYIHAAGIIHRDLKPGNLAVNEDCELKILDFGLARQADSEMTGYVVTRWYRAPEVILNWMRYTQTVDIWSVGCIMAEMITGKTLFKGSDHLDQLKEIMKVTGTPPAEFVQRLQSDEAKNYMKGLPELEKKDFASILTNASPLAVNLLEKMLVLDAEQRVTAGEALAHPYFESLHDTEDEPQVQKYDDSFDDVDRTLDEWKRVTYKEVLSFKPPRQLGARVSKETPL
# Chain of Voltage-dependent L-type calcium channel subunit alpha-1S (Homo sapiens) (Q13698 whole entry): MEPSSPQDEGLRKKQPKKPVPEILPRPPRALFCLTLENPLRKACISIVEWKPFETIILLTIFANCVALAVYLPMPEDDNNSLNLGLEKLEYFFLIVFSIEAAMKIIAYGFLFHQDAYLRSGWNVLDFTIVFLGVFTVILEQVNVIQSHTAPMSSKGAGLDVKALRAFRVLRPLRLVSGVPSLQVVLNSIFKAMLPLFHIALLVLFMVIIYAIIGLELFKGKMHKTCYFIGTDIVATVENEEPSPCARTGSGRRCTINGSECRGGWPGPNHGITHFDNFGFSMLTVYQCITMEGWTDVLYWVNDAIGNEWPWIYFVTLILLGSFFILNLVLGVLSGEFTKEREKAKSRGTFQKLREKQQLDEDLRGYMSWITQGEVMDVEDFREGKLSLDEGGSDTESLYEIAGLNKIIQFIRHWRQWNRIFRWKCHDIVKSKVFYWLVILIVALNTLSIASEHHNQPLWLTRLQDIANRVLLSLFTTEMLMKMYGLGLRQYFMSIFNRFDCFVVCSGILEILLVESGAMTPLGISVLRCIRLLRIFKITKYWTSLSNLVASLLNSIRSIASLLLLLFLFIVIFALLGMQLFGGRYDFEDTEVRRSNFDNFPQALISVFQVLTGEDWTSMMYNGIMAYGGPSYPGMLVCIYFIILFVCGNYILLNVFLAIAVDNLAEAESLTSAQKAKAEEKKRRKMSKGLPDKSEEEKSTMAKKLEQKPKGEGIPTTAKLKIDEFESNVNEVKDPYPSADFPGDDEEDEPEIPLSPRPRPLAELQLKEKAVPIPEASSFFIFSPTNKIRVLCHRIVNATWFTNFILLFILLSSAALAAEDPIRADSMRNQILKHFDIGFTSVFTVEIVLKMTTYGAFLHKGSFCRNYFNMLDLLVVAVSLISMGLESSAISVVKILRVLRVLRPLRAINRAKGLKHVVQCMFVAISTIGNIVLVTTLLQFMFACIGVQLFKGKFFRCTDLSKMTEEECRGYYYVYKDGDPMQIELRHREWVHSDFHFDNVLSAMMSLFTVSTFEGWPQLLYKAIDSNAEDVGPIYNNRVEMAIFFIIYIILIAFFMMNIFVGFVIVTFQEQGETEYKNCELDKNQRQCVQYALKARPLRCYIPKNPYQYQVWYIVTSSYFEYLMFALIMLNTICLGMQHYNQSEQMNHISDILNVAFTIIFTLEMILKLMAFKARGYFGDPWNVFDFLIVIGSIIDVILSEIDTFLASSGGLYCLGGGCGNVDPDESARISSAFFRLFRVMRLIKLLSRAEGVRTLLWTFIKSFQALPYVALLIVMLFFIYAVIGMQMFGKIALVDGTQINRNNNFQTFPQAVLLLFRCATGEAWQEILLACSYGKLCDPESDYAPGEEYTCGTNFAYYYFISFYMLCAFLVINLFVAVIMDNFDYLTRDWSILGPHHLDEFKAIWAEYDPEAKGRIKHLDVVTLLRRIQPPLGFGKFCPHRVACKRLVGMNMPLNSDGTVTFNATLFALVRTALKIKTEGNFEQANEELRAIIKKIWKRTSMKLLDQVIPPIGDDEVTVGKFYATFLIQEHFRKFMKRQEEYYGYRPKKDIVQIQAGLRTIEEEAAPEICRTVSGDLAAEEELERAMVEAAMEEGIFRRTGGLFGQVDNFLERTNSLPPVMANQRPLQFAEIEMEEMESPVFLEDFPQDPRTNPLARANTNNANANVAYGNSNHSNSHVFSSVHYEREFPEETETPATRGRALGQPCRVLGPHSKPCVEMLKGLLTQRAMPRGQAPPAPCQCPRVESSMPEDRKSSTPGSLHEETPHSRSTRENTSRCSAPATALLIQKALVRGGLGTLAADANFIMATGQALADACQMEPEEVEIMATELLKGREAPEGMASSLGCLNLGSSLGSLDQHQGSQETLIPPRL
# Chain of Serine/threonine-protein kinase Nek5 (Homo sapiens) (Q6P3R8 whole entry): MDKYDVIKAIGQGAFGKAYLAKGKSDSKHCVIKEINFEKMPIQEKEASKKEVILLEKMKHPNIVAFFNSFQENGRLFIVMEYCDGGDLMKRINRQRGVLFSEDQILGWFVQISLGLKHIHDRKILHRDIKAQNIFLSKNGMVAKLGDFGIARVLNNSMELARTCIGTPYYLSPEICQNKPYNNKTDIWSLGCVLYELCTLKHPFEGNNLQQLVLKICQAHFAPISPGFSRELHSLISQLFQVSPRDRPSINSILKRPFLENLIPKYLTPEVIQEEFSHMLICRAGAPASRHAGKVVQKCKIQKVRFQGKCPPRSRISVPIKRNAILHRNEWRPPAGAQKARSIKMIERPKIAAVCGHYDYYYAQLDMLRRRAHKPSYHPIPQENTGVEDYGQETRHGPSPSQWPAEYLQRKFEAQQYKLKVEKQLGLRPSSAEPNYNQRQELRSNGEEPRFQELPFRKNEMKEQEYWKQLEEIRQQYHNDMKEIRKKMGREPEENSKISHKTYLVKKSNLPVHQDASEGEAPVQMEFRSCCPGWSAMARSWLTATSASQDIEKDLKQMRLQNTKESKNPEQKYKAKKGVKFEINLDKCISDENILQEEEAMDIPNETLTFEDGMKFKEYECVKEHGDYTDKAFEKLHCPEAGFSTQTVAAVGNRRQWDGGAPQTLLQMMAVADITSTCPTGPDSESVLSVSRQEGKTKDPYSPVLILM
# Chain of Dual specificity tyrosine-phosphorylation-regulated kinase 1B (Q9Y463 whole entry, looked up): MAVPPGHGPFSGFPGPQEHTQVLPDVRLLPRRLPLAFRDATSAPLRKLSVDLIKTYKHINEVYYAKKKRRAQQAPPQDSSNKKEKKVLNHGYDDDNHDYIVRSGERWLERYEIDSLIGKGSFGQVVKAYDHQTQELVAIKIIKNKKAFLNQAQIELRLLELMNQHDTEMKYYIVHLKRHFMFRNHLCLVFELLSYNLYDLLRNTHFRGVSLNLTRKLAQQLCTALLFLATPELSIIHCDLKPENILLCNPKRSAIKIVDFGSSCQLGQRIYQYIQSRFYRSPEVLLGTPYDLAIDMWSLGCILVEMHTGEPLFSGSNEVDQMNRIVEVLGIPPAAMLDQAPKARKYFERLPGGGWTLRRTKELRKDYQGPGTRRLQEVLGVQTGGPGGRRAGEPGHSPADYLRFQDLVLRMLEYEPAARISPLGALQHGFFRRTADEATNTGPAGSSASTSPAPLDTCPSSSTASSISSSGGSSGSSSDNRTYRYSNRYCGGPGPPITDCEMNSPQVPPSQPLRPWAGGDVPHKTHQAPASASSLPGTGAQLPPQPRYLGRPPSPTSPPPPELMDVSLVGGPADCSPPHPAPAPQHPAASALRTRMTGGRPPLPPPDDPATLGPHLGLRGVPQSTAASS
# Chain of Mitogen-activated protein kinase 9 (P45984 whole entry, looked up): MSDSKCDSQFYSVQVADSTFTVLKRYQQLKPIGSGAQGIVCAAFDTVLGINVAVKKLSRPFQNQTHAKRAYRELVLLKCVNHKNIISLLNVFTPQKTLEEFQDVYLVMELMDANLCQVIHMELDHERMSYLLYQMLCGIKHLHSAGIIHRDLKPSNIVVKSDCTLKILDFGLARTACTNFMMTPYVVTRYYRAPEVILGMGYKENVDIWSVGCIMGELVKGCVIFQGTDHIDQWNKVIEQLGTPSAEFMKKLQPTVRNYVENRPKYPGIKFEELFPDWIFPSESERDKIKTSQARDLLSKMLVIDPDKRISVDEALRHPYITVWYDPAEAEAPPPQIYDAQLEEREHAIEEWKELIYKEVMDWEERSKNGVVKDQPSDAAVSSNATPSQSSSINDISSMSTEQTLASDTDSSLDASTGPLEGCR
# Chain of Megakaryocyte-associated tyrosine-protein kinase (Homo sapiens) (P42679 whole entry): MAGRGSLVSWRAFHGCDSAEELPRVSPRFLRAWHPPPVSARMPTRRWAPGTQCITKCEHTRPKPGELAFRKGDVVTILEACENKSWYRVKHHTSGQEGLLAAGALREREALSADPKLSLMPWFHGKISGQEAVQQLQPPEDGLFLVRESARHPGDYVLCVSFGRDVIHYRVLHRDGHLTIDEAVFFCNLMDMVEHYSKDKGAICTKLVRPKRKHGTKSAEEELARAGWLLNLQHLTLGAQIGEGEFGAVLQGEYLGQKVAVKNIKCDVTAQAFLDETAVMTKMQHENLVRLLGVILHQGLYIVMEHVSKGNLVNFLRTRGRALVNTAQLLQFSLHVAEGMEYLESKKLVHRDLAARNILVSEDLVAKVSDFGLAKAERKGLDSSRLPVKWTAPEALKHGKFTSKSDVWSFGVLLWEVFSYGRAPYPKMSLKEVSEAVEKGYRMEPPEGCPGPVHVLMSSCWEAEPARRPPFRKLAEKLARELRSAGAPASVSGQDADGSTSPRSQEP
# Chain of SRSF protein kinase 2 (Homo sapiens) (P78362 whole entry, looked up): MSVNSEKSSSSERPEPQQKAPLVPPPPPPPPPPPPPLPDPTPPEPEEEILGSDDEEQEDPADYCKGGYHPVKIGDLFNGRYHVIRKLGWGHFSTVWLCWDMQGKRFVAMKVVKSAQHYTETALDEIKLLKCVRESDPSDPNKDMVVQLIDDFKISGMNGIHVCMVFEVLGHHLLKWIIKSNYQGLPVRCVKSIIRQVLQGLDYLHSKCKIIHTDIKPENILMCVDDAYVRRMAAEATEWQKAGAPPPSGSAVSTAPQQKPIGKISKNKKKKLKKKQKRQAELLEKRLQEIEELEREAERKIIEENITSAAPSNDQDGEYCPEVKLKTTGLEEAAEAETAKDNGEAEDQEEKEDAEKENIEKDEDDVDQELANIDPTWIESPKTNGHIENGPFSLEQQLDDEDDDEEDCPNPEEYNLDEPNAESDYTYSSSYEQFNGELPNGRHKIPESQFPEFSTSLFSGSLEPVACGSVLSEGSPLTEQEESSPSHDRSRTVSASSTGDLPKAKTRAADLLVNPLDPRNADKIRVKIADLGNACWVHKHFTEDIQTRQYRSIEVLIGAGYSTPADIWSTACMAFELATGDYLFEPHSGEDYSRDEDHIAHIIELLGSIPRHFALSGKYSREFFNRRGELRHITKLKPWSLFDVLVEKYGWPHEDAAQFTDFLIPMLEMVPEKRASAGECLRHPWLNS
structure (smiles),measurement,setting,value
CCCOc1ccc([C@@H]2[C@@H](C(=O)O)[C@H](c3ccc4c(c3)OCO4)CN2CC(=O)Nc2c(CC)cccc2CC)cc1,% of control,[1],55%
same,% of control,[2],55%
same,% of control,[3],52%
CSc1cccnc1N1CCN(Cc2nc3ccccc3[nH]2)CC1,% of control,[4],59%
same,% of control,[5],31%
same,% of control,[6],45%
same,% of control,[7],46%
Cn1cncc1[C@@](O)(COc1ccc(C#N)cc1-c1ccc(OC(F)(F)F)cc1)c1ccc(C#N)cc1,% of control,[8],3%
same,% of control,[9],6.1%
same,% of control,[10],6.2%
same,% of control,[11],12%
same,% of control,[12],38%
same,% of control,[13],6%
CCCOc1ccc([C@H]2[C@H](C(=O)O)[C@@H](c3ccc4c(c3)OCO4)CN2CC(=O)Nc2c(CC)cccc2CC)cc1,% of inhibition,[14],36%
COc1ccc(Oc2cc(NCCC(F)(F)F)c3ncc(-c4ccc(C(=O)NC5CC5)c(C)c4)n3n2)c(F)c1F,% of control,[15],2%
same,% of control,[16],0%
same,% of control,[17],4%
CO[C@H]1CC[C@H](CNc2ccc(S(=O)(=O)NC(=O)c3ccc(N4CCN(CC5=C(c6ccc(Cl)cc6)CC(C)(C)CC5)CC4)cc3Oc3cnc4[nH]ccc4c3)cc2[N+](=O)[O-])CC1,% of inhibition,[18],63.2%
same,% of control,[19],4.4%
same,% of inhibition,[20],63.2%
same,% of control,[21],47%
